Data published in US4138554A, “7-[D-α-(4-Hydroxy-1,5-naphthyridine-3-carboxamido)-α-phenyl (and p-hydroxyphenyl)acetamido]-3-carbamoyloxymethyl-3-cephem-4-carboxylic acids” (priority 1977, dated 1979).
Like-named read-outs stand apart in the source and are kept apart here.

Key:
[1] = test system: Pseudomonas aeruginosa; assay: MIC by agar dilution against 61 strains of Pseudomonas aeruginosa, secondary evaluation; format: cell-based; conditions: Pseudomonas aeruginosa, read-out: MIC
Summary of the method: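 Agar dilution MICs were determined on Mueller-Hinton medium with two-fold compound steps and Steers' multipoint inoculation, across 31 primary-screen organisms and 61 P. aeruginosa strains.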

[2] = test system: Gram-negative (19 strains); assay: Mean % relative activity (MIC) vs sulbenicillin, Gram-negative (19 strains); format: cell-based; conditions: for Mean % Relative Activity (SPBC = 100%): G (-) (19 strains)
Method: (§1) Minimum inhibitory concentrations (MIC) of BB-S520 were determined by serial two-fold agar dilution method using Steers' apparatus on Meuller-Hinton agar plate against 31 test organisms for the primary screening and also against 61 strains of Pseudomonas aeruginosa for the secondary evaluation. The results are shown in Table 1 and Table 2 along with those of BB-S514 and sulbenicillin.
(§2) Minimum inhibitory concentrations (MIC) of cephalosporins in the present study were determined by serial two-fold agar dilution method using Steers' apparatus on Mueller-Hinton agar plate against 31 test organisms for the primary screening and also against 61 strains of Pseudomonas aeruginosa for the secondary evaluation.

[3] = test system: S. enteritidis; assay: MIC by serial two-fold agar dilution (Mueller-Hinton agar), S. enteritidis; format: cell-based; conditions: Salmonella enterica; S. enteritidis, Table 1; read-out: MIC
Summary of the method: (§3)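 Read-out is the minimum inhibitory concentration from agar plates (Mueller-Hinton) carrying serial two-fold drug dilutions, inoculated via Steers' apparatus. Strains: 31 test organisms in primary screening, 61 P. aeruginosa isolates for secondary evaluation.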

[4] = test system: P. vulgaris; assay: MIC by serial two-fold agar dilution (Mueller-Hinton agar), P. vulgaris; format: cell-based; conditions: Proteus vulgaris; P. vulgaris, Table 1; read-out: MIC
Summary of the method: as §3

[5] = test system: Gram-positive (6 strains); assay: Mean % relative activity (MIC) vs sulbenicillin, Gram-positive (6 strains); format: cell-based; conditions: for Mean % Relative Activity (SPBC = 100%): G (+) (6 strains)
Method: as §1, §2

[6] = test system: S. aureus Smith; assay: Median curative dose in mice, infection with S. aureus Smith; format: in vivo; conditions: Staphylococcus aureus, sc; subcutaneous injection in mice, S. aureus Smith, Table 4; read-out: Median Curative Dose (PD50)
Excerpt: (§4) Median Curative Dose in Mgm./Kg.
(§5) Upon Subcutaneous Injection in Mice

[7] = test system: E. coli Juhl; assay: Median curative dose in mice, infection with E. coli Juhl; format: in vivo; conditions: Escherichia coli, sc; subcutaneous injection in mice, E. coli Juhl, Table 4; read-out: Median Curative Dose (PD50)
Excerpt: as §4, §5

[8] = test system: K. pneumoniae; assay: MIC by serial two-fold agar dilution (Mueller-Hinton agar), K. pneumoniae; format: cell-based; conditions: Klebsiella pneumoniae, K. pneumoniae, Table 1
Summary of the method: as §3

[9] = test system: S. marcescens; assay: MIC by serial two-fold agar dilution (Mueller-Hinton agar), S. marcescens; format: cell-based; conditions: Serratia marcescens; S. marcescens, Table 1; read-out: MIC
Summary of the method: as §3

SMILES: NC(=O)OCC1=C(C(=O)O)N2C(=O)C(NC(=O)[C@H](NC(=O)c3cnc4cccnc4c3O)c3ccccc3)[C@H]2SC1 (stereo partly drawn) [BB-S520, Sodium 7-[D-α-(4-hydroxy-1,5-naphthyridine-3-carboxamido)-α-phenylacetamido]-3-carbamoyloxymethyl-3-cephem-4-carboxylate]
- MIC ([1]; BBRI Pa-No. 33, Table 7): 1.6 µg/mL
- MIC ([1]; BBRI Pa-No. 34, Table 2): 3.1 µg/mL
- MIC ([1]; BBRI Pa-No. 34, Table 7): 1.6 µg/mL
- MIC ([1]; BBRI Pa-No. 35, Table 2): 12.5 µg/mL
- MIC ([1]; BBRI Pa-No. 35, Table 7): 6.3 µg/mL
- MIC ([1]; BBRI Pa-No. 36, Table 2): 0.4 µg/mL
- MIC ([1]; BBRI Pa-No. 36, Table 7): < 0.2 µg/mL
- MIC ([1]; BBRI Pa-No. 37, Table 2): 3.1 µg/mL
- MIC ([1]; BBRI Pa-No. 37, Table 7): 3.1 µg/mL
- MIC ([1]; BBRI Pa-No. 38, Table 2): 6.3 µg/mL
- MIC ([1]; BBRI Pa-No. 38, Table 7): 6.3 µg/mL
- MIC ([1]; BBRI Pa-No. 39, Table 2): 3.1 µg/mL
- MIC ([1]; BBRI Pa-No. 39, Table 7): 1.6 µg/mL
- MIC ([1]; BBRI Pa-No. 41, Table 2): 3.1 µg/mL
- MIC ([1]; BBRI Pa-No. 41, Table 7): 3.1 µg/mL
- MIC ([1]; BBRI Pa-No. 42, Table 2): 6.3 µg/mL
- MIC ([1]; BBRI Pa-No. 42, Table 7): 1.6 µg/mL
- MIC ([1]; BBRI Pa-No. 43, Table 2): 6.3 µg/mL
- MIC ([1]; BBRI Pa-No. 43, Table 7): 3.1 µg/mL
- MIC ([1]; BBRI Pa-No. 44 (unnamed strain), Table 7): 3.1 µg/mL
- MIC ([1]; BBRI Pa-No. 44, Table 2): 6.3 µg/mL
- MIC ([1]; BBRI Pa-No. 51, Table 2): 3.1 µg/mL
- MIC ([1]; BBRI Pa-No. 51, Table 7): 1.6 µg/mL
- MIC ([1]; BBRI Pa-No. 52, Table 2): 3.1 µg/mL
- MIC ([1]; BBRI Pa-No. 52, Table 7): 3.1 µg/mL
- MIC ([1]; BBRI Pa-No. 53, Table 2): 3.1 µg/mL
- MIC ([1]; BBRI Pa-No. 53, Table 7): 1.6 µg/mL
- MIC ([1]; BBRI Pa-No. 54, Table 2): 3.1 µg/mL
- MIC ([1]; BBRI Pa-No. 54, Table 7): 1.6 µg/mL
- MIC ([1]; BBRI Pa-No. 55, Table 2): 3.1 µg/mL
- MIC ([1]; BBRI Pa-No. 55, Table 7): 3.1 µg/mL
- MIC ([1]; BBRI Pa-No. 56, Table 2): 3.1 µg/mL
- MIC ([1]; BBRI Pa-No. 56, Table 7): 3.1 µg/mL
- MIC ([1]; BBRI Pa-No. 57, Table 2): 3.1 µg/mL
- MIC ([1]; BBRI Pa-No. 57, Table 7): 1.6 µg/mL
- MIC ([1]; BBRI Pa-No. 58, Table 2): 6.3 µg/mL
- MIC ([1]; BBRI Pa-No. 58, Table 7): 3.1 µg/mL
- MIC ([1]; BBRI Pa-No. 59, Table 2): 6.3 µg/mL
- MIC ([1]; BBRI Pa-No. 59, Table 7): 1.6 µg/mL
- MIC ([1]; BBRI Pa-No. 60, Table 2): 3.1 µg/mL
- MIC ([1]; BBRI Pa-No. 60, Table 7): 1.6 µg/mL
- MIC ([1]; BBRI Pa-No. 61, Table 2): 6.3 µg/mL
- MIC ([1]; BBRI Pa-No. 61, Table 7): 1.6 µg/mL
- MIC ([1]; BBRI Pa-No. 62, Table 2): 6.3 µg/mL
- MIC ([1]; BBRI Pa-No. 62, Table 7): 50 µg/mL
- MIC ([1]; BBRI Pa-No. 64, Table 2): 3.1 µg/mL
- MIC ([1]; BBRI Pa-No. 64, Table 7): 3.1 µg/mL
- MIC ([1]; BBRI Pa-No. 65, Table 2): 3.1 µg/mL
- MIC ([1]; BBRI Pa-No. 65, Table 7): 1.6 µg/mL
- MIC ([1]; BBRI Pa-No. 66, Table 2): 3.1 µg/mL
- MIC ([1]; BBRI Pa-No. 66, Table 7): 1.6 µg/mL
- MIC ([1]; BBRI Pa-No. 67, Table 2): 6.3 µg/mL
- MIC ([1]; BBRI Pa-No. 67, Table 7): 3.1 µg/mL
- MIC ([1]; BBRI Pa-No. 68, Table 2): 6.3 µg/mL
- MIC ([1]; BBRI Pa-No. 68, Table 7): 3.1 µg/mL
- MIC ([1]; BBRI Pa-No. 69, Table 2): 12.5 µg/mL
- MIC ([1]; BBRI Pa-No. 69, Table 7): 6.3 µg/mL
- MIC ([1]; BBRI Pa-No. 70, K-Ps102 (CR-102), Table 2): 3.1 µg/mL
- MIC ([1]; BBRI Pa-No. 70, K-Ps102(CR-102), Table 7): 1.6 µg/mL
- MIC ([1]; GN315, BBRI Pa-No. 27, GN315, Table 2): 3.1 µg/mL
- MIC ([1]; GN315, BBRI Pa-No. 27, GN315, Table 7): 1.6 µg/mL
- MIC ([1]; GN4925, BBRI Pa-No. 44, GN4925, Table 7): 6.3 µg/mL
- MIC ([1]; GN4925, BBRI Pa-No. 45, GN4925, Table 2): 6.3 µg/mL
- Mean % Relative Activity (SPBC = 100%) ([2]; lot 1, Table 5): 179%
- Mean % Relative Activity (SPBC = 100%) ([2]; lot 2, Table 5): 108%
- Mean % Relative Activity (Sulbenicillin = 100%) ([2]; Gram-negative (19 strains), from geometric means of MICs in Table 1): 179%
- MIC [3]: 3.1 µg/mL
- MIC [4]: 100 µg/mL
- Mean % Relative Activity (SPBC = 100%) ([5]; lot 1, Table 5): 200%
- Mean % Relative Activity (SPBC = 100%) ([5]; lot 2, Table 5): 141%
- Mean % Relative Activity (Sulbenicillin = 100%) ([5]; Gram-positive (6 strains), from geometric means of MICs in Table 1): 200%
- ED50 [6]: 0.8 mg/kg
- ED50 [7]: 1.8 mg/kg
- MIC [8]: 1.6 µg/mL
- MIC [9]: > 100 µg/mL
